Legend:
Experiment in all cases: cells
Type in all cases: functional, cell-based, Homo sapiens
[1] = tested on: ESS-1;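 also: growth inhibition of human ESS-1 cells, read out by a cell viability assay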
Description: SANGER: Inhibition of human ESS-1 cell growth in a cell viability assay.

[2] = tested on: G-402
Description: SANGER: Inhibition of human G-402 cell growth in a cell viability assay.

[3] = tested on: GCT;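 also: GCT cell line proliferation inhibition, read out with a cell viability assay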
Description: SANGER: Inhibition of human GCT cell growth in a cell viability assay.

[4] = tested on: HCC1395;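 also: growth inhibition of HCC1395 cells, read out by a cell viability assay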
Description: SANGER: Inhibition of human HCC1395 cell growth in a cell viability assay.

[5] = tested on: HCT-15;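 also: cell viability readout, IC50 reflecting suppression of HCT-15 cell growth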
Description: SANGER: Inhibition of human HCT-15 cell growth in a cell viability assay.

[6] = tested on: HLE;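 also: growth inhibition of human HLE cells, read out by a cell viability assay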
Description: SANGER: Inhibition of human HLE cell growth in a cell viability assay.

[7] = tested on: HPAF-II;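 also: growth inhibition of HPAF-II cells, read out with a cell viability assay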
Description: SANGER: Inhibition of human HPAF-II cell growth in a cell viability assay.

[8] = tested on: HSC-3
Description: SANGER: Inhibition of human HSC-3 cell growth in a cell viability assay.

[9] = tested on: Huh-7;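 also: HuH-7 cell growth inhibition, read out with a cell viability assay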
Description: SANGER: Inhibition of human HuH-7 cell growth in a cell viability assay.

[10] = tested on: J82;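 also: growth inhibition of J82 cells, read out with a cell viability assay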
Description: SANGER: Inhibition of human J82 cell growth in a cell viability assay.

[11] = tested on: KYSE-140;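 also: cell viability assay measuring growth inhibition in human KYSE-140 cells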
Description: SANGER: Inhibition of human KYSE-140 cell growth in a cell viability assay.

[12] = tested on: MC-IXC;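 also: growth inhibition of MC-IXC cells, read out with a cell viability assay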
Description: SANGER: Inhibition of human MC-IXC cell growth in a cell viability assay.

[13] = tested on: ME-180;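 also: cell viability assay measuring growth inhibition of ME-180 cells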
Description: SANGER: Inhibition of human ME-180 cell growth in a cell viability assay.

[14] = tested on: MFE-280;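 also: growth inhibition of MFE-280 cells, determined with a cell viability readout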
Description: SANGER: Inhibition of human MFE-280 cell growth in a cell viability assay.

[15] = tested on: MIA PaCa-2;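 also: growth inhibition of MIA PaCa-2 cells, read out with a cell viability assay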
Description: SANGER: Inhibition of human MIA-PaCa-2 cell growth in a cell viability assay.

[16] = tested on: NB14;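 also: growth inhibition of NB14 cells measured with a cell viability assay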
Description: SANGER: Inhibition of human NB14 cell growth in a cell viability assay.

[17] = tested on: NCI-H1792;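 also: growth inhibition of human NCI-H1792 cells, read out as cell viability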
Description: SANGER: Inhibition of human NCI-H1792 cell growth in a cell viability assay.

[18] = tested on: NCI-H2087;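 also: growth inhibition determined with a cell viability readout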
Description: SANGER: Inhibition of human NCI-H2087 cell growth in a cell viability assay.

[19] = tested on: NCI-H2452;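 also: growth inhibition of NCI-H2452 cells, read out with a cell viability assay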
Description: SANGER: Inhibition of human NCI-H2452 cell growth in a cell viability assay.

[20] = tested on: NCI-H28;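 also: growth inhibition of human NCI-H28 cells, read out as cell viability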
Description: SANGER: Inhibition of human NCI-H28 cell growth in a cell viability assay.

[21] = tested on: NCI-H520;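 also: growth inhibition of NCI-H520 cells, measured by a cell viability assay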
Description: SANGER: Inhibition of human NCI-H520 cell growth in a cell viability assay.

[22] = tested on: NCI-H650;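 also: growth inhibition of NCI-H650 cells, read out by a viability assay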
Description: SANGER: Inhibition of human NCI-H650 cell growth in a cell viability assay.

[23] = tested on: OE19;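 also: growth inhibition of OE19 cells, measured through a cell viability read-out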
Description: SANGER: Inhibition of human OE19 cell growth in a cell viability assay.

[24] = tested on: RPMI-7951
Description: SANGER: Inhibition of human RPMI-7951 cell growth in a cell viability assay.

[25] = tested on: RT-112
Description: SANGER: Inhibition of human RT-112 cell growth in a cell viability assay.

[26] = tested on: SCC-4;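 also: growth inhibition of human SCC-4 cells, read out as cell viability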
Description: SANGER: Inhibition of human SCC-4 cell growth in a cell viability assay.

[27] = tested on: SCC-9;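 also: Read-out is a cell viability assay, with values giving inhibition of cell growth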
Description: SANGER: Inhibition of human SCC-9 cell growth in a cell viability assay.

[28] = tested on: TCC-SUP;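 also: growth inhibition of TCC-SUP cells, read out with a cell viability assay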
Description: SANGER: Inhibition of human TCCSUP cell growth in a cell viability assay.

[29] = tested on: 786-0
Description: SANGER: Inhibition of human 786-0 cell growth in a cell viability assay.

[30] = tested on: A2780;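 also: growth inhibition of A2780 cells, read out with a cell viability assay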
Description: SANGER: Inhibition of human A2780 cell growth in a cell viability assay.

[31] = tested on: A673;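 also: growth inhibition of human A673 cells, read out through a cell viability assay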
Description: SANGER: Inhibition of human A673 cell growth in a cell viability assay.

[32] = tested on: ABC-1;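 also: growth inhibition of human ABC-1 cells, read out by a cell viability assay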
Description: SANGER: Inhibition of human ABC-1 cell growth in a cell viability assay.

[33] = tested on: ASPC1;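 also: growth inhibition of AsPC-1 cells, read out with a cell viability assay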
Description: SANGER: Inhibition of human AsPC-1 cell growth in a cell viability assay.

[34] = tested on: YKG-1;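 also: cell growth inhibition, read out with a viability assay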
Description: SANGER: Inhibition of human YKG-1 cell growth in a cell viability assay.

[35] = tested on: CFPAC-1;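 also: cell viability readout used to gauge suppression of CFPAC-1 cell proliferation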
Description: SANGER: Inhibition of human CFPAC-1 cell growth in a cell viability assay.

## CO[C@H]1C[C@@H]2CC[C@@H](C)[C@@](O)(O2)C(=O)C(=O)N2CCCC[C@H]2C(=O)O[C@H]([C@H](C)C[C@@H]2CC[C@@H](OC(=O)C(C)(CO)CO)[C@H](OC)C2)CC(=O)[C@H](C)/C=C(\C)[C@@H](O)[C@@H](OC)C(=O)[C@H](C)C[C@H](C)/C=C/C=C/C=C/1C [TEMSIROLIMUS]
[1]; Homo sapiens, ESS-1
  IC50: > 0.2 µM
[2]; Homo sapiens, G-402
  IC50: > 0.2 µM
[3]; Homo sapiens, GCT
  IC50: > 0.2 µM
[4]; Homo sapiens, HCC1395
  IC50: > 0.2 µM
[5]; Homo sapiens, HCT-15
  IC50: > 0.2 µM
[6]; Homo sapiens, HLE
  IC50: 0.0539 µM
[7]; Homo sapiens, HPAF-II
  IC50: > 0.2 µM
[8]; Homo sapiens, HSC-3
  IC50: 0.0387 µM
[9]; Homo sapiens, Huh-7
  IC50: 0.0123 µM
[10]; Homo sapiens, J82
  IC50: 0.148 µM
[11]; Homo sapiens, KYSE-140
  IC50: 0.156 µM
[12]; Homo sapiens, MC-IXC
  IC50: > 0.2 µM
[13]; Homo sapiens, ME-180
  IC50: 0.109 µM
[14]; Homo sapiens, MFE-280
  IC50: > 0.2 µM
[15]; Homo sapiens, MIA PaCa-2
  IC50: > 0.2 µM
[16]; Homo sapiens, NB14
  IC50: 0.1 µM
[17]; Homo sapiens, NCI-H1792
  IC50: > 0.2 µM
[18]; Homo sapiens, NCI-H2087
  IC50: > 0.2 µM
[19]; Homo sapiens, NCI-H2452
  IC50: > 0.2 µM
[20]; Homo sapiens, NCI-H28
  IC50: > 0.2 µM
[21]; Homo sapiens, NCI-H520
  IC50: > 0.2 µM
[22]; Homo sapiens, NCI-H650
  IC50: > 0.2 µM
[23]; Homo sapiens, OE19
  IC50: > 0.2 µM
[24]; Homo sapiens, RPMI-7951
  IC50: 0.039 µM
[25]; Homo sapiens, RT-112
  IC50: 0.0471 µM
[26]; Homo sapiens, SCC-4
  IC50: > 0.2 µM
[27]; Homo sapiens, SCC-9
  IC50: > 0.2 µM
[28]; Homo sapiens, TCC-SUP
  IC50: 0.0823 µM
[29]; Homo sapiens
  IC50: 0.0517 µM
[30]; Homo sapiens, A2780
  IC50: 0.00588 µM
[31]; Homo sapiens, A673
  IC50: 0.161 µM
[32]; Homo sapiens, ABC-1
  IC50: > 0.2 µM
[33]; Homo sapiens, ASPC1
  IC50: > 0.2 µM
[34]; Homo sapiens, YKG-1
  IC50: > 0.2 µM
[35]; Homo sapiens, CFPAC-1
  IC50: > 0.2 µM

## CS(=O)(=O)c1ccc(C(=O)Nc2ccc(Cl)c(-c3ccccn3)c2)c(Cl)c1 [VISMODEGIB]
[1]; Homo sapiens, ESS-1
  IC50: > 10 µM
[2]; Homo sapiens, G-402
  IC50: > 10 µM
[3]; Homo sapiens, GCT
  IC50: > 10 µM
[4]; Homo sapiens, HCC1395
  IC50: > 10 µM
[5]; Homo sapiens, HCT-15
  IC50: > 10 µM
[6]; Homo sapiens, HLE
  IC50: > 10 µM
[7]; Homo sapiens, HPAF-II
  IC50: > 10 µM
[8]; Homo sapiens, HSC-3
  IC50: > 10 µM
[9]; Homo sapiens, Huh-7
  IC50: > 10 µM
[10]; Homo sapiens, J82
  IC50: > 10 µM
[11]; Homo sapiens, KYSE-140
  IC50: > 10 µM
[12]; Homo sapiens, MC-IXC
  IC50: > 10 µM
[13]; Homo sapiens, ME-180
  IC50: > 10 µM
[14]; Homo sapiens, MFE-280
  IC50: > 10 µM
[15]; Homo sapiens, MIA PaCa-2
  IC50: > 10 µM
[16]; Homo sapiens, NB14
  IC50: > 10 µM
[17]; Homo sapiens, NCI-H1792
  IC50: > 10 µM
[18]; Homo sapiens, NCI-H2087
  IC50: > 10 µM
[19]; Homo sapiens, NCI-H2452
  IC50: > 10 µM
[20]; Homo sapiens, NCI-H28
  IC50: > 10 µM
[21]; Homo sapiens, NCI-H520
  IC50: > 10 µM
[22]; Homo sapiens, NCI-H650
  IC50: > 10 µM
[23]; Homo sapiens, OE19
  IC50: > 10 µM
[24]; Homo sapiens, RPMI-7951
  IC50: > 10 µM
[25]; Homo sapiens, RT-112
  IC50: > 10 µM
[26]; Homo sapiens, SCC-4
  IC50: > 10 µM
[27]; Homo sapiens, SCC-9
  IC50: > 10 µM
[28]; Homo sapiens, TCC-SUP
  IC50: > 10 µM
[29]; Homo sapiens
  IC50: > 10 µM
[30]; Homo sapiens, A2780
  IC50: > 10 µM
[31]; Homo sapiens, A673
  IC50: > 10 µM
[32]; Homo sapiens, ABC-1
  IC50: > 10 µM
[33]; Homo sapiens, ASPC1
  IC50: > 10 µM
[34]; Homo sapiens, YKG-1
  IC50: > 10 µM
[35]; Homo sapiens, CFPAC-1
  IC50: > 10 µM

## CISPLATIN
[1]; ess-1
  IC50: 2.54 µM
[2]; g-402
  IC50: 7.11 µM
[3]; gct
  IC50: 6.12 µM
[4]; hcc1395
  IC50: 143 µM
[5]; hct-15
  IC50: 267 µM
[6]; hle
  IC50: 6.06 µM
[7]; hpaf-ii
  IC50: 114 µM
[8]; hsc-3
  IC50: 21.9 µM
[9]; huh-7
  IC50: 40.9 µM
[10]; j82
  IC50: 5.1 µM
[11]; kyse-140
  IC50: 7.59 µM
[12]; mc-ixc
  IC50: 1.68 µM
[13]; me-180
  IC50: 55.2 µM
[14]; mfe-280
  IC50: 626 µM
[15]; mia paca-2
  IC50: 5.35 µM
[16]; nb14
  IC50: 171 µM
[17]; nci-h1792
  IC50: 14.9 µM
[18]; nci-h2087
  IC50: 14.5 µM
[19]; nci-h2452
  IC50: 213 µM
[20]; nci-h28
  IC50: 117 µM
[21]; nci-h520
  IC50: 72.8 µM
[22]; nci-h650
  IC50: 29.9 µM
[23]; oe19
  IC50: 709 µM
[24]; rpmi-7951
  IC50: 4.06 µM
[25]; rt-112
  IC50: 14.3 µM
[26]; scc-4
  IC50: 31 µM
[27]; scc-9
  IC50: 23.6 µM
[28]; tcc-sup
  IC50: 8.5 µM
[29]
  IC50: 4.47 µM
[30]; a2780
  IC50: 6.39 µM
[31]; a673
  IC50: 2.17 µM
[32]; abc-1
  IC50: 3.61 µM
[33]; aspc1
  IC50: 21 µM
[34]; ykg-1
  IC50: 10.3 µM
[35]; cfpac-1
  IC50: 35.2 µM

— ChEMBL document CHEMBL1201861, “Genomics of Drug Sensitity in Cancer screening data, Wellcome Trust Sanger Institute”
